Reference: US8143282B2, “Heterocyclic compounds” (S*BIO Pte Ltd., priority 2005, dated 2012)

Legend:
HDAC1 enzyme = target: T1, HDAC1 enzyme (Homo sapiens, UniProt Q13547); assay: In vitro HDAC assay for determination of IC50 values (BIOMOL fluorescent-based HDAC activity assay); type: biochemical
T1 construct: Amplification of human HDAC1 coding region from this cDNA library was cloned separately into the baculovirus expression pDEST20 vector; made in house; host or cells: SF9 insect cells, pDEST20-HDAC1 baculovirus
T1 sequence (Q13547 whole entry): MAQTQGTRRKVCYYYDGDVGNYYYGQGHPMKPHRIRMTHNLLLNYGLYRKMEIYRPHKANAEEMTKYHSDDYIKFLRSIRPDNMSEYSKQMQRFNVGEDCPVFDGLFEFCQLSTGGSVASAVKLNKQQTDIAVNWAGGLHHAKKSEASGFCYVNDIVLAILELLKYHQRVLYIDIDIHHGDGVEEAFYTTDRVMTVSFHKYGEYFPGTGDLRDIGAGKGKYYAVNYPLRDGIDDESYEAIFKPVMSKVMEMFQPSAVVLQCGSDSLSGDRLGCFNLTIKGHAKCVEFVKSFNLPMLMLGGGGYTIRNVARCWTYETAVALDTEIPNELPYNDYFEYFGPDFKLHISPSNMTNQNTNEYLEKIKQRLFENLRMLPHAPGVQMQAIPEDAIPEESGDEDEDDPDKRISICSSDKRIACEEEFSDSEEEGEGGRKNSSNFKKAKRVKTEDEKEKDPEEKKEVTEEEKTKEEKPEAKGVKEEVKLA
Outline: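 Recombinant GST-HDAC1, cloned from SW620 cDNA and expressed in Sf9 cells, tested in a fluorogenic Fluor de Lys deacetylase assay. Developer was added for 10 min and fluorescence read at 360/460 nm. IC50 came from concentration series.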

acetylated histone H3 = assay: Histone H3 acetylation assay (immuno-blotting) in Colo205 cells; type: cell-based, Human; details: 10 μM, 24 h, western-blot
Protocol: A hallmark of histone deacetylase (HDAC) inhibition is the increase in the acetylation level of histones. Histone acetylation, including H3, H4 and H2A can be detected by immuno-blotting (western-blot). Colo205 cells, approximately 5×10^5 cells, were seeded in the previously described medium, cultivated for 24 h and subsequently treated with HDAC inhibitory agents and a positive control at a final concentration of 10 μM. After 24 h, cells were harvested and lysed according to the instruction from Sigma Mammalian Cell Lysis Kit. The protein concentration was quantified using BCA method (Sigma Pte Ltd). The protein lysate was separated using 4-12% bis-tris SDS-PAGE gel (Invitrogen Pte Ltd) and was transferred onto PVDF membrane (BioRad Pte Ltd). The membrane was probed using primary antibody specific for acetylated histone H3 (Upstate Pte Ltd). The detection antibody, goat anti rabbit antibody conjugated with HRP was used according to the manufacturing instruction (Pierce Pte Ltd). After removing the detection antibody from the membrane, an enhanced chemiluminescent substrate for detection of HRP (Pierce Pte Ltd) was added onto the membrane. After removing the substrate, the membrane was exposed to an X-ray film (Kodak) for 1 sec-20 mins. The X-ray film was developed using the X-ray film processor. The density of each band observed on the developed film could be qualitatively analyzed using UVP Bioimaging software (UVP, Inc, Upland, Calif.). The values were then normalized against the density of actin in the corresponding samples to obtain the expression of the protein.

A2780 = assay: Cell-based proliferation assay for GI50 (CyQUANT), A2780; details: Homo sapiens; A2780, 96 h treatment; read-out: Cellular or Growth Inhibition Activity, GI50, A2780
Protocol: Human colon cancer cell lines (Colo205, HCT116), Ovarian cancer cell line (A2780), Hepatoma cell line (HEP3B), Prostate cancer cell line (PC3) were obtained from ATCC or ECACC. Colo205 cells were cultivated in RPMI 1640 containing 2 mM L-Glutamine, 5% FBS, 1.0 mM Na Pyruvate, 1 U/ml of penicillin and 1 μg of streptomycin. HCT116 cells were cultivated in McCoy's containing RPMI 1640 containing 2 mM L-Glutamine, 5% FBS, 1 U/ml of penicillin and 1 μg of streptomycin. A2780 cells were cultivated in RPMI 1640 containing 2 mM L-Glutamine, 5% FBS, 1 U/ml of penicillin and 1 μg of streptomycin. HEP3B cells were cultivated in EMEM containing 2 mM L-glutamine, 5% FBS, 1% non essential amino acid, 1 mM Na Pyruvate, 1 U/ml of penicillin and 1 μg of streptomycin. PC3 cells were cultivated in F12K, 2 mM L-glutamine, 5% FBS, 1 U/ml of penicillin and 1 μg of streptomycin. PC3, Colo205, and HCT116 cells were seeded in 96-wells plate at 1000, 5000 and 6000 cells per well respectively. A2780 and HEP3B cells were seeded in 96-wells plate at 4000 cells per well respectively. The plates were incubated at 37° C., 5% CO2, for 24 h. Cells were treated with compounds at various concentrations for 96 h. Cell growth was then monitored using CyQUANT® cell proliferation assay (Invitrogen Pte Ltd). Dose response curves were plotted to determine GI50 values for the compounds using XL-fit (ID Business Solution, Emeryville, Calif.). GI50 is defined as the concentration of compound required for 50% inhibition of cell growth.

CCCc1nc2cc(/C=C/C(=O)NO)ccc2n1CCNCCC(C)(C)C [Compound 130, 3-{1-[2-(3,3-Dimethyl-butylamino)-ethyl]-2-propyl-1H-benzoimidazol-5-yl}-N-hydroxy-acrylamide]
IC50 (HDAC1 enzyme): 0.036 µM | Histone Acetylation activities (Histone-3) (acetylated histone H3): Active | GI50 (A2780): < 0.5 µM
